PubChem BioAssay AID179 (DTP/NCI, 2004)
Values joined by “and” are separate entries in the source; they are usually repeats but may differ in a detail not shown here. Equal entries are not always repeated. Active and inactive are the calls of the source.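 The calls were made as follows: active = compounds giving half or more protection of infected cells from virus-caused growth loss, again on retest; inactive = the rest.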 Where a SMILES comes first, the peptide text is derived from it. The star is where a group is joined. Cbz = O=C(OCc1ccccc1)*

System: CEM cells HIV-1 protection, formazan growth assay
Test: NCI AIDS Antiviral Assay
Conditions: for IC50: measured here: growth of uninfected CEM cells
Procedure, shortened: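 Steps: treat uninfected and HIV-1-infected human CEM cells at five drug levels; quantify growth by soluble formazan; retest any compound reaching 50% protection; classify actives from the retest.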

Structure (SMILES)	EC50	IC50	outcome
CCN1C[C@]2(C)CC[C@H](OC)C34C1C([C@H](OC(C)=O)[C@@H]32)[C@@]1(OC)C[C@H](OC)[C@H]2C[C@@H]4[C@@H]1[C@H]2O	> 77.6 µM	> 77.6 µM	
COC(=O)C1=C(\O)C[C@@]2(C)CC[C@@H](C(=O)OC)C2C/C=C\1C(=O)OC (stereo partly specified)			inactive
O=C1C=C(O)c2ccccc2C1=O	> 200 µM	120 µM	
CCC(=O)N1C(=O)C(CC)(CC)C(=O)N1C(=O)CC	> 200 µM	> 200 µM	
CC(NC(=O)C(NC(=O)OCc1ccccc1)C(C)C)C(=O)NCC(=O)O (stereo not drawn) (Cbz-Val-Ala-Gly-OH; configuration not given here)	> 200 µM	> 200 µM	
O=C1OC2C=CC1C1(CCOC1=O)C2 (stereo unspecified)	> 200 µM	> 200 µM	
CCn1cc(/C=C/C(C)c2cn(CC)c(=O)[nH]c2=O)c(=O)[nH]c1=O (stereo unspecified)			inactive
CNC1c2ccccc2C(=O)c2cc3c(cc21)OCCOCCOCCOCCO3 (stereo unspecified)	> 200 µM	36.3 µM	
CC(=O)O[C@@H]1CC(C)C2CC2C2=C(C(O)OC2O)[C@@H]1C(C)CCC=C(C)C (stereo partly specified)	> 69.2 µM	58.9 µM	
C/C=C(\C)C(=O)O[C@@H]1CC[C@]2(CO2)C2(COC(C)=O)C(OC(C)=O)CC(C)[C@](C)(C[C@H](O)C3=CC(=O)OC3)[C@@H]12 (stereo partly specified)			inactive
OC(C/C(=N\N1CCCCC1)c1cccs1)(C(F)(F)F)C(F)(F)F	> 200 µM	145 µM	
CN(C)Cc1cc(C(=O)/C=C/c2ccc(F)cc2)cc(CN(C)C)c1O	> 200 µM	19.1 µM	
CC1=N/C(=C\c2ccc(C#N)cc2)C(=O)O1	> 123 µM	> 123 µM	
Cc1nc(Nc2ccccc2)sc1C(=O)NNc1ccc([N+](=O)[O-])cc1[N+](=O)[O-]	> 63.1 µM	38 µM	
Cc1cc2c3ccccc3n(C)c2c2c1C(=O)c1ccccc1C2=O	> 7.94 µM	> 7.94 µM	
COC(=O)/C(=C\c1ccc(N(CCC#N)CCC#N)cc1)NC(=O)c1cc([N+](=O)[O-])ccc1Cl	> 74.1 µM	> 74.1 µM	
CC(C)(C)CP(=S)(CC(C)(C)C)CC(C)(C)C	> 117 µM	> 117 µM	
CCCC1(CC(=O)O)OCCc2c1[nH]c1ccccc21 (stereo unspecified)	> 912 µM	457 µM	
CC(=O)Oc1c(Cl)cc(C(=CCC[C@H]2CC[C@@]3(C)[C@@H](CC[C@@H]4[C@@H]3CC[C@]3(C)[C@@H](C(C)CCCC(C)C)CC[C@@H]43)C2)c2cc(Cl)c(OC(C)=O)c(C(=O)OCc3ccccc3)c2)cc1C(=O)OCc1ccccc1 (stereo partly specified)	> 200 µM	> 200 µM	
c1ccn2nnnc2c1	> 2090 µM	> 2090 µM	
COCCCCCCCCCCC(=O)OCC1OC(n2cc(C)c(=O)[nH]c2=O)CC1N=[N+]=[N-] (stereo unspecified)		117 µM	active
Cc1cn(C2CC(n3cncn3)C(C(C)O)O2)c(=O)[nH]c1=O (stereo unspecified)	> 813 µM	> 813 µM	

Structure (SMILES)	EC50	IC50	outcome
Cc1cc(NCCCCCCNc2cc(C)nc3ccc(N)cc23)c2cc(N)ccc2n1		10.7 µM and 72.4 µM	
O=C(Nc1ccc(Cl)cc1)NS(=O)(=O)c1ccc2c(c1)CCC2	> 708 µM	47.9 µM	
CCOC(=O)c1c2ccc(/C=C/c3ccccc3)ccc-2c(C(=O)OCC)c1N	> 7.08 µM	> 7.08 µM	
CSCc1nc2ccccc2c(C)[n+]1[O-]	> 200 µM	> 200 µM	
C#CCCCCC#CC1CCCC1C1=CC(=O)c2ccccc21 (stereo unspecified)	> 100 µM	6.03 µM	
O=C1OC(OC/C(Br)=C(/Br)COC2OC(=O)C(Cl)=C2Cl)C(Cl)=C1Cl (stereo unspecified)	> 200 µM	3.47 µM	
O=C1OCC2=C1C(c1ccc3c(c1)OCO3)c1cc3c(cc1O2)OCO3 (stereo unspecified)	> 200 µM	1.66 µM	
CCC(C)/C(=C\C(=O)O)C(=O)O (stereo unspecified)	> 200 µM	> 200 µM	
CCOc1cc2c(cc1OC)c[n+](C)c1c3cc(OC)c(OC)cc3ccc21			inactive
CN1C(=O)C(O)CC1c1ccccc1C(F)(F)F (stereo unspecified)	> 200 µM	> 200 µM	
CN1C2CC(=O)CC1[C@H](O)[C@@H]2O	> 200 µM	> 200 µM	
COc1cc([N+](=O)[O-])c(OC)c2c(Nc3ccc(S(=O)(=O)O)c4cc(S(=O)(=O)O)cc(S(=O)(=O)O)c34)cc(C)nc12	> 200 µM	> 200 µM	
BrC/C=C/C[P+](c1ccccc1)(c1ccccc1)c1ccccc1	> 5.25 µM	0.603 µM	
CCOC(=O)c1nc2ccc(C(F)(F)F)cc2nc1Nc1ccc(OC)c(OC)c1	> 200 µM	> 200 µM	
CCN(CC)CC(=O)NC1c2ccc(Cl)cc2Oc2c(C)cccc21 (stereo unspecified)	> 72.4 µM	58.9 µM	
CC(C)c1cccc(C(C)C)c1NC(=O)C(=O)C1SC(=S)NC1=O (stereo unspecified)	> 692 µM	> 692 µM	
COc1ccccc1CO[C@]1(C)CNCC(C)(C)NC(=O)[C@](C)(OCc2ccccc2OC)CNCC(C)(C)NC1=O	> 200 µM	91.2 µM	
CC1(C)CN(C(=O)OCc2ccccc2)[C@@H]2N1C(=O)[C@@]2(C)OCCCO[C@]1(C)C(=O)N2[C@H]1N(C(=O)OCc1ccccc1)CC2(C)C	> 200 µM	> 200 µM	
CC(C)N1CC(=O)N2CSCC2C1=O (stereo unspecified)	> 200 µM	> 200 µM	
N#CC(C(=O)CCC(=O)Nc1cccc(C(F)(F)F)c1)c1ccccc1 (stereo unspecified)	> 692 µM	> 692 µM	
O=[N+]([O-])c1cccc(S(=O)(=O)N/N=C/c2cc(I)cc([N+](=O)[O-])c2O)c1	> 363 µM	63.1 µM	
C=C[C+](CCCC)C(=O)[O-]	589 µM	631 µM	

Structure (SMILES)	EC50	IC50	outcome
Cc1cc(Cl)ccc1NC(=O)/C(Cc1nc2ccc(C(=O)c3ccccc3)cc2[nH]c1=O)=N/NC(=O)c1ccncc1	> 224 µM	75.9 µM	
O=C1CSC(=Nc2ccc(F)cc2F)N1Cc1cccs1	> 107 µM	40.7 µM	
Cc1ccc(-c2cc(=S)ss2)cc1	> 200 µM	166 µM	
CC(C)CCC[C@H](C)[C@H]1CC[C@H]2[C@@H]3CC=C4CC(OC(=O)OC5CCC6(C)CC7CCC6(OO7)C5(C)C)CC[C@]4(C)[C@H]3CC[C@]12C (stereo partly specified)	> 200 µM	> 200 µM	
O=C(/C=C\c1ccccc1O)c1ccc(O)cc1O	> 72.4 µM	7.24 µM	
COc1ccc(C2[C@H]3C(=O)N(c4ccc(Cc5ccc(N6C(=O)[C@@H]7ON(c8ccccc8)C(c8ccc(OC)cc8)[C@@H]7C6=O)cc5)cc4)C(=O)[C@H]3ON2c2ccccc2)cc1 (stereo partly specified)	> 4.68 µM	> 4.68 µM	
CC(O)CSP(=S)(Oc1ccccc1)Oc1ccccc1 (stereo unspecified)	> 39.8 µM	> 39.8 µM	
Cc1cnoc1NC1=CC(=O)C(=O)c2ccccc21	> 200 µM	26.3 µM	
CC(=O)Nc1cc(S(=O)(=O)O)cc2cc(S(=O)(=O)O)cc(O)c12	> 200 µM	> 200 µM	
CN(C)CCNc1ccc2c(=O)n(CCN(C)C)c(=O)n3c4ccc(O)cc4c(=O)c1c23	> 0.2 µM	0.0107 µM	
O=C1CNS(=O)(=O)N1	> 1820 µM	> 1820 µM	
N#C/C(N)=C(\C#N)NC(=O)C(=O)N/C(C#N)=C(\N)C#N	69.2 µM	> 200 µM	
c1ccc2[nH]c(-c3nc4ccccc4o3)nc2c1	> 15.8 µM	> 15.8 µM	
CCOC(=S)SCC(=O)c1cccc([N+](=O)[O-])c1			inactive
CN1C=c2c3c(ccc2=C2C=CC4C=C5OCOC5=CC4=C21)OCO3 (stereo unspecified)	> 20 µM	0.759 µM	
C=CCOc1ccc(N)c([N+](=O)[O-])c1	> 200 µM	> 200 µM	
N#Cc1c(N)[nH]c(=S)c(C#N)c1-c1ccccc1	> 200 µM	135 µM	
C/C(CC(=O)Nc1ccc([N+](=O)[O-])cc1)=N/N=C(N)N	> 67.6 µM	> 67.6 µM	
O=C(CC1C(=O)Nc2ccccc2S1=O)Nc1cc(Cl)ccc1Cl (stereo unspecified)	> 3.8 µM	> 3.8 µM	
COc1ccc(C(=O)c2ccc(OC)c(S(=O)(=O)O)c2)cc1S(=O)(=O)O	> 575 µM	> 575 µM	
CN1C(=O)[C@@H]2N(CSC2(C)C)C1=S	> 200 µM	> 200 µM	
NC(Cc1ccc(S(=O)(=O)O)cc1)C(=O)NC(Cc1ccc(S(=O)(=O)O)cc1)C(=O)O (stereo unspecified)	> 200 µM	> 200 µM	

Structure (SMILES)	EC50	IC50	outcome
CCC[CH2][Sn]1([CH2]CCC)[O]C(c2ccccn2)S(=O)(=O)[O]1 (stereo unspecified)	> 30.9 µM	0.178 µM	
CO/N=C/c1cc(OC)c(OC)c(OC)c1	> 813 µM	> 813 µM	
O=C1C2=C(c3ccccc31)C(c1ccccc1Cl)NC(=S)N2 (stereo unspecified)	> 79.4 µM	33.1 µM	
Cc1cn(C2CC(O[Si](C)(C)C(C)(C)C)C(/C=[N+](/[O-])C(C)(C)C)O2)c(=O)[nH]c1=O (stereo unspecified)	> 120 µM	33.9 µM	
CCOC(=O)C(CC(CO)(C(C)=O)C(=O)OCC)C(C)=O (stereo unspecified)	> 200 µM	22.4 µM	
Cn1c(=O)c2nc(NCc3ccccc3)sc2n(C)c1=O	> 61.7 µM	> 61.7 µM	
CCCCCNC(=O)C(O)C(O)C(=O)NCCCCC (stereo unspecified)	> 126 µM	> 126 µM	
C1=Cc2cccc3occ(c23)C=C1	> 200 µM	28.8 µM	
O=[N+]([O-])c1cc(C(F)(F)F)cc([N+](=O)[O-])c1CCl			inactive
CCCCCCCCCCCCNC(=S)OCCCC			inactive
CCCC(/C=N/N=C(N)N)=N\N=C(N)N	> 83.2 µM	> 83.2 µM	
COc1cc(/C=C(\OC(C)=O)c2ccc3c(c2)OCO3)cc(OC)c1OC	> 126 µM	52.5 µM	
NC(=O)NNC(=O)c1nc[nH]c1[N+](=O)[O-]	> 200 µM	> 200 µM	
Cc1ncc([N+](=O)[O-])n1CCO	> 200 µM	> 200 µM	
COc1ccc(C(O)CC(O)(C(F)(F)F)C(F)(F)F)cc1 (stereo unspecified)	> 200 µM	> 100 µM	
CCOC(=O)/C=C1/SC(N2CCCCC2)C(=O)N1CC (stereo unspecified)	> 166 µM	> 166 µM	
CCCCCCCCCCCCC1=C(OC)C(=O)c2ccc(C)nc2C1=O			inactive
COC(=O)C(NC(=O)C12CCC(C)(C(=O)O1)C2(C)C)c1cc(C(C)(C)C)c(O)c(C(C)(C)C)c1 (stereo unspecified)	> 20 µM	> 20 µM	
CC(C)(C)[Si](C)(C)OC[C@H]1O[C@@H](n2ccc(=O)[nH]c2=O)[C@H](O[Si](C)(C)C(C)(C)C)[C@@]12N[C@H](C(=O)O)CS2	> 200 µM	10 µM	
